In patent US20240209028A1, “CNP COMPOUNDS” (priority 2022, published 2024):
≈ marks a conversion by molar mass, not a printed value. Like-named read-outs stand apart in the source and are kept apart here. Starred links: 1 amine or outer side, 2 acyl side, 3 side chain; linkers in the order of their positions; H or OH if unused. Positions of bridges follow the written chain, without caps; N, C: chain ends. Residues, ends and D or L forms follow the SMILES beside them. *: point of attachment. C18 diacid = O=C(O)CCCCCCCCCCCCCCCCC(=O)*; γGlu = O=C(O)[C@H](CCC(=O)[*:2])N[*:1]

Experiments:
[1] = CNP local tolerance study in LYD pigs (s.c. injection, histopathology); format: in vivo, domestic LYD pig
How it was run: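 Domestic pigs dosed s.c. mid-back, 100 or 200 μl at approx. 4400 μM, in phosphate pH 6.5 or acetate pH 4.0 buffers with glycerol or propylene glycol; saline as negative control. Sites excised 4 or 5 days post injection, H&E sections graded on 5-level scale; necrosis used as marker.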

[2] = Solubility of CNP compounds at pH 4.0 and pH 6.5; format: physicochemical
How it was run: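 Freeze-dried peptide was brought to a nominal ≥4000-5000 nmol/mL in 5 mM sodium acetate, 250 mM glycerol (pH 4.0) or in 8 mM sodium phosphate, 23 mg/mL glycerol (pH 6.5 via NaOH titration). Samples were equilibrated at room temperature overnight if undissolved, and supernatant concentration was measured by CAD.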

mouse metatarsal bones = experiment: Mouse metatarsal bone dissection and culture (ex vivo bone growth); format: cell-based, mouse (NMRI); details: 100 nM, n=8
Procedure: The purpose of this study was to evaluate bone growth after administration of CNP compounds in an ex vivo mouse model.
Procedure: One-day old mouse pups (NMRI, Javier Labs France) were euthanised prior to dissection. All applicable international and internal Novo Nordisk guidelines for care and use of animals were followed. The three middle metatarsal bones were dissected out from each hind paw. The dissected bones were placed in 24-well cell culture plates and cultured in 400 μl a-Minimum Essential Media supplemented with 0.2% BSA, 1% Pen/Strep at 37° C. and 5% CO2. The bones from all animals were randomised into a control group and six CNP compound-treated groups (100 nM; n=8). The medium was changed every 2-3 days. All compounds were formulated according to the principles described in General Methods of Preparation—Method G. Compounds 9435 and 9483 were formulated in A) 5 mM sodium acetate, 250 mM glycerol, pH 4.0 while compounds 9384, 9407, 9480 and 9482 were formulated in B) 8 mM sodium phosphate, 250 mM glycerol, pH 7.4.
Digital pictures were captured on day 0, 4, 7, 11, and 14 using a digital camera attached to a Nikon microscope. The length of each metatarsal bone was measured using ImageJ software and increase in bone length was expressed as percentage change from the length measured at the day of dissection (Mean (SD)).
In Table 27, metatarsal bones were isolated from mice and cultured for up to 14 days. Length was measured every 3-4 days throughout the study and expressed as percentage change from day 0 (Mean (SD)). Statistically significant differences are indicated compared to control group (two-way ANOVA).

| SMILES | local subcutaneous necrosis ([1]; 5 days after subcutaneous injections in the pig) | assessment for human subcutaneous administration ([1]; based on pig local tolerance) | solubility ([2]; 5 mM sodium acetate, 250 mM glycerol, pH 4.0, room temperature, read-out: Solubility at pH 4.0) [mM] | solubility ([2]; 8 mM sodium phosphate, 23 mg/mL glycerol, pH 6.5, room temperature, read-out: Solubility at pH 6.5) [mM] | Increase in bone length, mean (%) change from day 0 (mouse metatarsal bones; day 4 in culture) [%] | Increase in bone length, mean (%) change from day 0 (mouse metatarsal bones; day 7 in culture) [%] | Increase in bone length, mean (%) change from day 0 (mouse metatarsal bones; day 11 in culture) [%] | Increase in bone length, mean (%) change from day 0 (mouse metatarsal bones; day 14 in culture) [%] | local subcutaneous necrosis ([1]; pig, in vivo, sc) | solubility ([2]; pH 4) [mM] |
| --- | --- | --- | --- | --- | --- | --- | --- | --- | --- | --- |
| CC[C@H](C)[C@@H]1NC(=O)[C@H](CCCNC(=N)N)NC(=O)[C@H](CC(=O)O)NC(=O)[C@H](CC(C)C)NC(=O)[C@@H]2CCCN2C(=O)[C@H](CC(C)C)NC(=O)CNC(=O)[C@H](Cc2ccccc2)NC(=O)[C@@H](NC(=O)CNC(=O)[C@H](CO)NC(=O)[C@H](CO)NC(=O)[C@H](CC(C)C)NC(=O)CNC(=O)[C@H](CCCCN)NC(=O)[C@H](CCCCN)NC(=O)[C@H](CCC(N)=O)NC(=O)[C@H](C)NC(=O)CNC(=O)[C@H](CCCCN)NC(=O)[C@H](Cc2ccc(O)cc2)NC(=O)[C@H](CCCCN)NC(=O)[C@H](CCCNC(=N)N)NC(=O)[C@H](C)NC(=O)[C@H](CCC(N)=O)NC(=O)[C@@H]2CCCN2C(=O)[C@H](Cc2c[nH]cn2)NC(=O)[C@H](CCC(=O)O)NC(=O)[C@H](CCC(N)=O)NC(=O)CC[C@H](NC(=O)CC[C@H](NC(=O)CC[C@H](NC(=O)CC[C@H](NC(=O)CC[C@H](NC(=O)CCCCCCCCCCCCCCCCC(=O)O)C(=O)O)C(=O)O)C(=O)O)C(=O)O)C(=O)O)CSSC[C@@H](C(=O)O)NC(=O)CNC(=O)[C@H](CC(C)C)NC(=O)CNC(=O)[C@H](CO)NC(=O)[C@H](CC(C)C)NC(=O)[C@H](CO)NC(=O)CNC1=O [compound 9482] ({C18 diacid-γGlu-γGlu-γGlu-γGlu-γGlu}-QEHPQARKYKGAQKKGLSSGCFGLPLDRIGSLSGLGC-OH; disulfide 21-37) | no | acceptable | 0.099 (≈ 0.478 mg/mL) | 5.32 (≈ 25.7 mg/mL) | 37.7 | 47.1 | 54.4 | 57.5 |  |  |
| CC[C@H](C)[C@@H]1NC(=O)[C@H](CCCNC(=N)N)NC(=O)[C@H](CCC(=O)O)NC(=O)[C@H](CC(C)C)NC(=O)[C@@H]2CCCN2C(=O)[C@H](CC(C)C)NC(=O)CNC(=O)[C@H](Cc2ccccc2)NC(=O)[C@@H](NC(=O)CNC(=O)[C@H](CO)NC(=O)[C@H](CO)NC(=O)[C@H](CC(C)C)NC(=O)CNC(=O)[C@H](CCCCN)NC(=O)[C@H](CCCCN)NC(=O)[C@H](CCC(N)=O)NC(=O)[C@H](C)NC(=O)CNC(=O)[C@H](CCCCN)NC(=O)[C@H](Cc2ccc(O)cc2)NC(=O)[C@H](CCCCN)NC(=O)[C@H](CCCNC(=N)N)NC(=O)[C@H](C)NC(=O)[C@H](CCC(N)=O)NC(=O)[C@@H]2CCCN2C(=O)[C@H](Cc2c[nH]cn2)NC(=O)[C@H](CCC(=O)O)NC(=O)[C@H](CCC(N)=O)NC(=O)CC[C@H](NC(=O)CC[C@H](NC(=O)CC[C@H](NC(=O)CC[C@H](NC(=O)CCCCCCCCCCCCCCCCC(=O)O)C(=O)O)C(=O)O)C(=O)O)C(=O)O)CSSC[C@@H](C(=O)O)NC(=O)CNC(=O)[C@H](CC(C)C)NC(=O)CNC(=O)[C@H](CO)NC(=O)[C@H](CC(C)C)NC(=O)[C@H](CO)NC(=O)CNC1=O [compound 9483] ({C18 diacid-γGlu-γGlu-γGlu-γGlu}-QEHPQARKYKGAQKKGLSSGCFGLPLERIGSLSGLGC-OH; disulfide 21-37) |  |  |  |  | 30.2 | 39.5 | 49.7 | 51.5 | no to moderate | 4.96 (≈ 23.4 mg/mL) |
